Key:
[1] = Elution test of ethenzamide; format: physicochemical; conditions: molded product at 50 MPa or pulverized bulk drug
Method: 0.2 g of the obtained mixed powder was weighed and put in a mortar (manufactured by Kikusui Seisakusho, Ltd. using materials SUS2, 3) and compressed with a round plane mallet (manufactured by Kikusui Seisakusho, Ltd. using materials SUS2, […], trade name, PCM-1A, compression rate 1 cm/min) and after held at the aimed pressure for 10 seconds, a columnar molded product was taken out. […]
1 g of Cellulose Aggregate G was added to 10 mL of a solution in which ethenzamide (manufactured by API Co., Ltd., a powder grade was pulverized with a small size pulverizer) was dissolved in ethanol (manufactured by Wako Pure Chemical Industries, Ltd., special grade chemical) in a ratio of 5:95 and stirred by a magnetic stirrer for three minutes. The obtained dispersion was introduced into an evaporator and completely deprived of solvent to obtain a powder sample.
Similarly operating as in Example 14 except that the pressure at the time of preparing a columnar molded product from this powder was changed to 50 MPa and elution test was performed.
Only the ethenzamide pulverized by the method of Example 15 was subjected to elution test.

[2] = Reactivity with pharmacological agent (aspirin decomposition ratio on storage); format: physicochemical; conditions: 60° C., airtight, two weeks

| Dissolution Rate after 1 hour [1] | aspirin decomposition ratio [2] | Compound |
| --- | --- | --- |
| 9% | – | CCOc1ccccc1C(N)=O [Bulk Ethenzamide, ethenzamide] |
| – | 15% | CC(=O)Oc1ccccc1C(=O)O [aspirin, Aspirin] |

From US8597686B2, “Porous cellulose aggregate and formed product composition comprising the same” (Asahi Kasei Chemicals Corporation, priority 2004, dated 2013)
